The results in this text go back to ChEMBL document CHEMBL1201862, “PubChem BioAssay data set” (2004).

Structures are written as SMILES.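 How tested: cells in 96-well plates exposed to compound for 48 hours at five concentrations. GI50 marks 50% less growth.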 Activity calls are given as the source filed them. No stated cut-off is given here; in the data, active = GI50 up to about 1.1 µM and inactive = higher. Numbered stars: 1 amine (or outer) side, 2 acyl side, 3 side chain; on linkers, the order of the positions; unused ones are H or OH. Bridge positions count the residues as written; N and C are the ends. Square brackets hold non-standard residues; d marks the D form. Peptide text beside a SMILES is read from it. I, II: the chains in the order shown. Actinocin(9to1) = Cc1c2oc3c(C)ccc(C(=O)[*:1])c3nc-2c(C(=O)[*:2])c(N)c1=O; NMeH = CN[CH](Cc1c[nH]cn1)C(=O)O; Sar = CNCC(=O)O

Test systems include SR; SF-268; KM12; TK-10; SF-295; OVCAR-8; OVCAR-3; SNB-19; CAKI-1; MCF7; RPMI-8226; EKVX; NCI/ADR-RES; UACC-62; A498; SK-MEL-2; SK-MEL-28; 786-0; RXF 393; UACC-257.
Holding throughout (test): inhibition of tumour cell growth, NCI panel, 48 h

For the molecule `O=C1c2ccccc2C(=O)N1[C@@H](Cc1ccccc1)C(=O)n1cccc1CO`, the GI50 with SR, with SF-268, in the experiment with KM12, in the experiment with TK-10, in the experiment on SF-295 and with OVCAR-8 was > 100 µM (inactive) each time. Moreover, the GI50 in the experiment on OVCAR-3 was > 100 µM (inactive); with SNB-19, > 100 µM (inactive); in the experiment on CAKI-1, > 100 µM (inactive); with MCF7, > 100 µM (inactive); with RPMI-8226, 93.8 µM (inactive); in the experiment with EKVX it was > 100 µM (inactive). For the same molecule, the GI50 in the experiment with NCI/ADR-RES, with UACC-62, in the experiment on A498, with SK-MEL-2, in the experiment on SK-MEL-28 and with 786-0 was > 100 µM (inactive) throughout. The GI50 with RXF 393 is 1.02 µM (active); in the experiment with UACC-257, > 100 µM (inactive).

On to `Cc1c2oc3c(C)ccc(C(=O)NC4C(=O)NC(C(C)C)C(=O)N5CCCC5C(=O)N(C)CC(=O)N(C)C(Cc5cnc[nH]5)C(=O)OC4C)c3nc-2c(C(=O)NC2C(=O)NC(C(C)C)C(=O)N3CCCC3C(=O)N(C)CC(=O)N(C)C(Cc3cnc[nH]3)C(=O)OC2C)c(N)c1=O` (stereo not given) (I: TVP[Sar][NMeH] / II: TVP[Sar][NMeH]; ester I:1-I:C, II:1-II:C; linker I:N-II:N via Actinocin(9to1); configuration not given here), for which the GI50 in the experiment on SR was 65.3 µM (inactive); in the experiment on SF-268, 67.6 µM (inactive); in the experiment on KM12 it was 62.1 µM (inactive); in the experiment on TK-10 it was > 100 µM (inactive); with SF-295, 45.6 µM (inactive); in the experiment with OVCAR-8, > 100 µM (inactive). The GI50 is > 100 µM (inactive) with OVCAR-3; 45 µM (inactive) with SNB-19; 38.1 µM (inactive) in the experiment with CAKI-1; 30.4 µM (inactive) in the experiment on MCF7; 31.6 µM (inactive) with RPMI-8226; > 100 µM (inactive) in the experiment on EKVX. Also, the GI50 in the experiment on NCI/ADR-RES was > 100 µM (inactive); with UACC-62 it was 30.3 µM (inactive); with A498 it was > 10 µM (inactive); with SK-MEL-2, 26.3 µM (inactive); with SK-MEL-28, 39.4 µM (inactive); in the experiment with 786-0 it was 45.6 µM (inactive). In addition, the GI50 in the experiment on RXF 393 is 14.7 µM (inactive); in the experiment with UACC-257, > 100 µM (inactive).

`Cn1c2cc(Cl)ccc2c2ccc3c(c21)C(=O)C=CC3=O`: the GI50 with SR was 6.07 µM (inactive); in the experiment on SF-268, 38.6 µM (inactive); in the experiment with KM12, > 100 µM (inactive); in the experiment on TK-10, 26.9 µM (inactive); in the experiment with SF-295 it was > 100 µM (inactive); in the experiment with OVCAR-8 it was 28.3 µM (inactive). Moreover, the GI50 was 11.7 µM (inactive) in the experiment on OVCAR-3; > 100 µM (inactive) in the experiment with SNB-19; 13.5 µM (inactive) with CAKI-1; 13.8 µM (inactive) in the experiment on MCF7; 5.57 µM (inactive) in the experiment on RPMI-8226; > 71.4 µM (inactive) in the experiment on EKVX. In addition, the GI50 in the experiment with NCI/ADR-RES is > 52.4 µM (inactive); in the experiment on UACC-62 it was 21.5 µM (inactive); with A498, 68.7 µM (inactive); with SK-MEL-2, 33.3 µM (inactive); in the experiment with SK-MEL-28 it was 25.3 µM (inactive); in the experiment with 786-0 it was 18.8 µM (inactive). Further, the GI50 was 21.1 µM (inactive) with RXF 393 and 26.4 µM (inactive) in the experiment with UACC-257.

Consider `COc1cc(CCNC2=CC(=O)c3cccnc3C2=O)ccc1O`, for which the GI50 is 1.87 µM (inactive) with SR; 2.07 µM (inactive) in the experiment on SF-268; 1.95 µM (inactive) in the experiment with KM12; 7.96 µM (inactive) in the experiment with TK-10; 1.32 µM (inactive) in the experiment on SF-295; 2.26 µM (inactive) in the experiment on OVCAR-8. Also, the GI50 in the experiment on OVCAR-3 was 2.04 µM (inactive); with SNB-19 it was 1.61 µM (inactive); with CAKI-1, 1.39 µM (inactive); in the experiment on MCF7, 0.16 µM (active); in the experiment with RPMI-8226, 1.92 µM (inactive); in the experiment on EKVX, 3.08 µM (inactive). Also, the GI50 in the experiment with NCI/ADR-RES is 2.55 µM (inactive); in the experiment on UACC-62, 0.957 µM (active); in the experiment on A498, 2.6 µM (inactive); with SK-MEL-2, 1.35 µM (inactive); in the experiment on SK-MEL-28 it was 1.22 µM (inactive); with 786-0, 1.37 µM (inactive). In addition, the GI50 is 0.955 µM (active) in the experiment on RXF 393 and 0.869 µM (active) in the experiment on UACC-257.

For `COC(=O)[C@@H]1C[C@H]([Se]c2ccccc2)CN1C(=O)OCc1ccccc1`, the GI50 in the experiment on SR was 26.1 µM (inactive); in the experiment on SF-268 it was 47.5 µM (inactive); with KM12, 30.8 µM (inactive); in the experiment on TK-10, 53.5 µM (inactive); in the experiment on SF-295 it was 35.3 µM (inactive); in the experiment on OVCAR-8, 45.3 µM (inactive). For the same molecule, the GI50 in the experiment with OVCAR-3 is 24 µM (inactive); with SNB-19, 62.7 µM (inactive); in the experiment with CAKI-1, 36 µM (inactive); in the experiment on MCF7, 20 µM (inactive); with RPMI-8226, 24.8 µM (inactive); in the experiment with EKVX it was 39.2 µM (inactive). The GI50 is 39.2 µM (inactive) in the experiment with NCI/ADR-RES; 15.1 µM (inactive) in the experiment on UACC-62; 31.2 µM (inactive) in the experiment on A498; 19.5 µM (inactive) with SK-MEL-2; 24 µM (inactive) with SK-MEL-28; 41.7 µM (inactive) with 786-0. Further, the GI50 in the experiment on RXF 393 is 20.2 µM (inactive); in the experiment with UACC-257 it was 31.4 µM (inactive).

In the case of `O=C1c2cc([N+](=O)[O-])ccc2-c2cccc(F)c21`, the GI50 was 30.3 µM (inactive) in the experiment with SR; 44.3 µM (inactive) in the experiment with SF-268; 79.4 µM (inactive) in the experiment with KM12; > 100 µM (inactive) in the experiment on TK-10; > 100 µM (inactive) in the experiment on SF-295; 43.1 µM (inactive) in the experiment with OVCAR-8. The GI50 with OVCAR-3 is > 100 µM (inactive); with SNB-19, > 100 µM (inactive); in the experiment with CAKI-1, > 100 µM (inactive); in the experiment on MCF7 it was 31.3 µM (inactive); in the experiment with RPMI-8226, 64.1 µM (inactive); in the experiment on EKVX it was 18.9 µM (inactive). In addition, the GI50 with NCI/ADR-RES was > 100 µM (inactive); with UACC-62, 56.1 µM (inactive); with A498, 65.6 µM (inactive); in the experiment with SK-MEL-2, 21.2 µM (inactive); with SK-MEL-28, > 100 µM (inactive); in the experiment with 786-0, > 100 µM (inactive). The GI50 is 42.9 µM (inactive) in the experiment on RXF 393 and 65.3 µM (inactive) in the experiment on UACC-257.

Turning to `COc1cc2c(cc1OC)C(Cl)C(c1ccc(F)cc1)=C2Cl` (stereo not given), the GI50 with SR is 3.01 µM (inactive); with SF-268, 15.7 µM (inactive); in the experiment on KM12, 16.1 µM (inactive); with TK-10 it was 13.6 µM (inactive); with SF-295, 14.4 µM (inactive); in the experiment with OVCAR-8, 14.7 µM (inactive). In addition, the GI50 was 16.7 µM (inactive) with OVCAR-3; 17.5 µM (inactive) in the experiment on SNB-19; 13.8 µM (inactive) in the experiment with CAKI-1; 11.6 µM (inactive) in the experiment with MCF7; 9.06 µM (inactive) with RPMI-8226; 7.19 µM (inactive) in the experiment on EKVX. The GI50 with NCI/ADR-RES is 13.6 µM (inactive); in the experiment on UACC-62, 12.9 µM (inactive); in the experiment on A498, 14.9 µM (inactive); in the experiment with SK-MEL-2, 12.8 µM (inactive); in the experiment on SK-MEL-28 it was 17.3 µM (inactive); in the experiment with 786-0, 11.7 µM (inactive). Further, the GI50 was 15.4 µM (inactive) in the experiment with RXF 393 and 14.9 µM (inactive) in the experiment with UACC-257.

`CC12CCC(/C(=N/c3ccc([N+](=O)[O-])cc3)C1=O)C2(C)C` (stereo not given): the GI50 in the experiment on SR was 22.5 µM (inactive); in the experiment on SF-268 it was 20.3 µM (inactive); in the experiment with KM12, 19.9 µM (inactive); in the experiment with TK-10 it was 16.9 µM (inactive); with SF-295, 27.1 µM (inactive); in the experiment on OVCAR-8 it was 23 µM (inactive). Besides, the GI50 in the experiment on OVCAR-3 was 21.4 µM (inactive); in the experiment on SNB-19 it was 33.4 µM (inactive); in the experiment with CAKI-1, 19.3 µM (inactive); with MCF7 it was > 100 µM (inactive); in the experiment with RPMI-8226 it was 20.1 µM (inactive); in the experiment on EKVX, 20.1 µM (inactive). Besides, the GI50 is 23.3 µM (inactive) with NCI/ADR-RES; > 100 µM (inactive) with UACC-62; > 100 µM (inactive) in the experiment with A498; 19 µM (inactive) in the experiment on SK-MEL-2; 12 µM (inactive) in the experiment on SK-MEL-28; 16.8 µM (inactive) with 786-0. The GI50 in the experiment with RXF 393 is 13.9 µM (inactive); in the experiment with UACC-257, 32.4 µM (inactive).

On to `O=C1/C(=N\NC(=S)NC2CCCCC2)c2cc([N+](=O)[O-])ccc2N1CN1CCOCC1`, for which the GI50 in the experiment on SR is 1.14 µM (inactive); in the experiment with SF-268, 4.35 µM (inactive); in the experiment with KM12, 4.81 µM (inactive); in the experiment on TK-10, 6.76 µM (inactive); in the experiment on SF-295 it was 3.67 µM (inactive); with OVCAR-8, 3.9 µM (inactive). Moreover, the GI50 is 5.86 µM (inactive) with OVCAR-3; 7.87 µM (inactive) in the experiment with SNB-19; 3.3 µM (inactive) in the experiment on CAKI-1; 4.06 µM (inactive) in the experiment on MCF7; 11.3 µM (inactive) with RPMI-8226; 3.13 µM (inactive) in the experiment on EKVX. Also, the GI50 with NCI/ADR-RES is 3.26 µM (inactive); in the experiment on UACC-62, 7.89 µM (inactive); in the experiment on A498, 4.8 µM (inactive); with SK-MEL-2, 11.7 µM (inactive); in the experiment on SK-MEL-28 it was 10.9 µM (inactive); with 786-0, 5.52 µM (inactive). For the same molecule, the GI50 was 12.4 µM (inactive) in the experiment with RXF 393 and 10.5 µM (inactive) with UACC-257.
